These results are taken from patent publication US5877026A, “Analgesic peptides from venom of Grammostola spatulata and use thereof” (priority 1998, dated 1999).

Where no end group is shown, it is not given here.

Holding throughout (format): in vivo, rat
Series [1] has as its system Sprague-Dawley rats. Put plainly: von Frey filament threshold. From the text: In this test filaments of increasing thickness are applied to the dorsal surface of a hindlimb until the rat either voluntarily removes the appendage with a forcible escape movement or vocalizes. The thickness of the filaments are arbitrarily labelled with a value which can be transformed into a grams force reading according to the following equation: [formula] Data are expressed either as absolute gram force values or a percentage of the maximum possible effect (MPE) as described in the following equation: [formula]

The subject of series [2] is opioid receptors. Put plainly: Opioid receptor testing (opioid antagonist pretreatment). The procedure: Animals were then tested in the tail flick test (Example 3) and von Frey tests (Example 5).
For series [3], the system named is Sprague Dawley rats. As to conditions: i.th.; two treatment arms.
The test system of series [4] is Sprague Dawley rats. Put plainly: Acute inflammatory pain, carrageenan paw withdrawal latency. As to conditions: for Mean Latency Time In Seconds ± SEM, 30 minutes post treatment / Mean Latency Time In Seconds ± SEM, 60 minutes post treatment: 3 nmol intrathecal cannula; for Mean Latency Time In Seconds ± SEM, 30 minutes post treatment: given after 150 min post carrageenan; for Mean Latency Time In Seconds ± SEM, 60 minutes post treatment: predetermined cut-off value 20.8 sec. As to the method: Tissue injury results in inflammation and hyperalgesia (i.e. increased magnitude or duration of pain response to supra threshold noxious stimuli) at both the site of injury and at adjacent tissue sites. To assess the anti-hyperalgesic activity of GsAF II in inflammatory pain conditions, paw withdrawal latencies were determined in adult 350-400 gram male Sprague Dawley rats following the unilateral injection of carrageenan, a seaweed extract, into the hindpaw in accordance with the method of Hargreaves et al, Pain, 32:77-88, 1988. Briefly, withdrawal latencies are measured by placing the rat on a glass plate and focusing radiant heat from the underside of the plate toward the hindpaw surface. Latencies values are recorded in seconds to withdrawal of the hindpaw from the surface of the plate. Basal measurements are made prior to injection of the carrageenan (4 mg/hindpaw), followed by a measurement at 150 min post carrageenan injection to obtain the level of hyperalgesic response. Subsequent to the second measurement, GsAF II or vehicle (i.e. 0:1% BSA/saline) is administered through an indwelling intrathecal cannula positioned within the lumbar enlargement of the spinal cord. Anti-hyperalgesic activity is determined by measuring paw withdrawal latencies at various time intervals following compound administration. Concurrent with the paw withdrawal latencies, physical measurements of paw volume and paw temperature are recorded to detect anti-inflammatory and anti-pyretic activities.
Background: Carrageenan injected into the paw causes an acute inflammation.

[5] abbreviates: 3 nmol group (n = 4), before compound administration.

In the case of “Tyr-Cys-Gln-Lys-Trp-Leu-Trp-Thr-Cys-Asp-Ser-Glu-Arg-Lys-Cys-Cys-Glu-Asp-Met-Val-Cys-Arg-Leu-Trp-Cys-Lys-Lys-Arg-Leu-NH2 (YCQKWLWTCDSERKCCEDMVCRLWCKKRL-NH2; cysteine pairing not given here) [GsAF I]”, the “MPE, von Frey threshold” value in series [1] (18 picomole (6.6 nanograms), one hour pretreatment) came to 22 % MPE; in series [1] (18 picomoles (66 nanograms), 30 minutes post injection) it was 24 % MPE; in series [1] (180 picomole, one hour pretreatment), 100 % MPE; in series [1] (180 picomoles (666 nanograms), 30 minutes post injection) it was 93 % MPE. Moreover, the confounding side effects entry in series [1] (180 and 18 picomoles) is on record as “No confounding side effects were present”. Moreover, in series [2] (B-funaltrexamine 5 micrograms i.th. 18 hours prior, hot plate test or formalin test), the “effect of B-funaltrexamine pretreatment on analgesic activity” value is on record as “failed to inhibit”. Also, in series [2] (naloxone 50 μg i.th. immediately prior, 180 pmoles i.th., measured 10 minutes later), the “effect of intrathecal naloxone on analgesic response” value is listed as “failed to inhibit”. The “effect of naloxone pretreatment on analgesic activity” value in series [2] (naloxone 10mg/kg subcutaneous 5 minutes prior, 180 pmoles i.th., measured 10 minutes later, tail flick and von Frey tests) is recorded as “failed to inhibit”. In addition, in series [3], the “dose response properties, morphine treatment versus saline arm (cross tolerance)” value is given as “not significantly different”.
On to “YCQKWMWTCDEERKCCEGLVCRLWCKKKIEW (cysteine pairing not given here) [GsAF II]”, for which, in series [1] (2.33 nanomole (9.27 micrograms), 30 minutes post injection), the “MPE, von Frey threshold” value came out at 83%. The “rats demonstrating maximal analgesic activity (100% MPE), von Frey” value in series [1] (2.33 nanomole (higher dose), 30 minutes post injection) was determined as 75%. Also, the “MPE, von Frey threshold” value in series [1] (583 picomole (2.32 micrograms), 30 minutes post injection) came to 48%. Moreover, in series [4] (setting [5]), the “Mean Latency Time In Seconds ± SEM, 150 minutes post carrageenan injection” value worked out at 3.0 ± 0.81 s and the “Mean Latency Time In Seconds ± SEM, base latency prior to carrageenan injection” value was determined as 8.3 ± 1.2 s. For the same substance, in series [4], the “Mean Latency Time In Seconds ± SEM, 30 minutes post treatment” value came out at 17.82 ± 3.78 s and the “Mean Latency Time In Seconds ± SEM, 60 minutes post treatment” value was 20.8 s. Besides, in series [4] (listed as GsAFII), the “Mean Latency Time In Seconds ± SEM, 30 minutes post treatment” value amounted to 17.82 ± 3.78 s and the “Mean Latency Time In Seconds ± SEM, 60 minutes post treatment” value worked out at 20.8 ± 0.00 s. Moreover, in series [4] (3 nmoles intrathecal), the “confounding motor deficits or overt negative side effects” value was “no indication”; the “hyperalgesic, thermal-induced response” value is “completely reversed”; the paw temperature entry is “No significant reduction”; the paw volume entry was “No significant reduction”.
